Molecular target: Rac GTPase-activating protein 1 (Homo sapiens) (UniProt Q9H0H5)
Experiment: blockers of MgcRacGAP-driven Rac1 GTP hydrolysis – biochemical, ADP Hunter fluorescence, primary and confirmatory, confirmation (AID 624330);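 also: fluorescence reports GDP produced by GAP-driven GTP hydrolysis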
Details: MgcRacGAP-stimulated Rac1 GTP hydrolysis, GST-tagged Rac1 F28L mutant substrate

Rac GTPase-activating protein 1 (Homo sapiens), sequence (Q9H0H5 whole entry, looked up): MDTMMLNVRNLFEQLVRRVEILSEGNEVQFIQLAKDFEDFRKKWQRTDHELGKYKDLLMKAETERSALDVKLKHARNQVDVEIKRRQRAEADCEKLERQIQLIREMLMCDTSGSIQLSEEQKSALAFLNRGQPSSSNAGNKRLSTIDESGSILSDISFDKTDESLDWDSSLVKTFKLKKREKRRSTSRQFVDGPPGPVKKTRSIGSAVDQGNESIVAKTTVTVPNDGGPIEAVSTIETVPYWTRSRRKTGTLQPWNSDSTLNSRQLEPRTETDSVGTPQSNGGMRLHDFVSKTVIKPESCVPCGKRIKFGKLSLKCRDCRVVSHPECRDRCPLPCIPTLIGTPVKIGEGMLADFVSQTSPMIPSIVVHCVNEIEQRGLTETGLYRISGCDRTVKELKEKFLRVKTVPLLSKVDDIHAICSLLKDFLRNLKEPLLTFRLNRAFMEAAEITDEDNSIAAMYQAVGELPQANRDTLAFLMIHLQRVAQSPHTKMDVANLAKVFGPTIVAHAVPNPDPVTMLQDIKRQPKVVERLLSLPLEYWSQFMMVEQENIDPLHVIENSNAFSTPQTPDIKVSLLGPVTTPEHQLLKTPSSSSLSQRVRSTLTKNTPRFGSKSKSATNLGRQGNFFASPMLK

Row | IC50 | Structure (SMILES)
1 | 49.6 µM | C#CCOCCOCCOCCNc1nc(N2CCN(C(=O)CCCCCCCCCCNC(=O)[C@@H](CCSC)n3cc(CCO)nn3)CC2)nc(N2CCN(C(=O)CCCCCCCCCCNC(=O)[C@H](CO)n3cc(CCCCCN)nn3)CC2)n1
2 | 67.9 µM | C#CCOCCOCCOCCNc1nc(N2CCN(C(=O)[C@H](CCCCN)n3cc([C@@H](N)C(C)CC)nn3)CC2)nc(N2CCN(C(=O)[C@H](Cc3cc4ccccc4[nH]3)n3cc([C@@H](N)C(C)CC)nn3)CC2)n1 (some centres not stated)

— PubChem BioAssay AID624330 (Southern Research Specialized Biocontainment Screening …, 2012)
